According to ChEMBL document CHEMBL1649268, “Comparative in vitro activity profile of oritavancin against recent gram-positive clinical isolates” (2009):
≈ marks a conversion by molar mass, not a printed value.

How the values were obtained:
[1] = tested on: Streptococcus pneumoniae; experiment: Antimicrobial activity against penicillin-intermediate Streptococcus pneumoniae clinical isolates assessed as percent susceptible isolates by broth microdilution method; assay type: functional
[2] = tested on: Streptococcus; experiment: Antimicrobial activity against Streptococcus Group F clinical isolates by broth microdilution method; assay type: functional
[3] = tested on: Staphylococcus haemolyticus; experiment: Antimicrobial activity against oxacillin-resistant Staphylococcus haemolyticus clinical isolates by broth microdilution method; assay type: functional
[4] = tested on: Streptococcus; experiment: Antimicrobial activity against erythromycin-susceptible Streptococcus Group F clinical isolates by broth microdilution method; assay type: functional
[5] = tested on: Streptococcus pyogenes; experiment: Antimicrobial activity against erythromycin-susceptible Streptococcus pyogenes clinical isolates assessed as percent susceptible isolates by broth microdilution method; assay type: functional
[6] = tested on: Streptococcus agalactiae; experiment: Antimicrobial activity against Streptococcus agalactiae clinical isolates by broth microdilution method; assay type: functional
[7] = tested on: Streptococcus pneumoniae; experiment: Antimicrobial activity against Streptococcus pneumoniae clinical isolates by broth microdilution method; assay type: functional
[8] = tested on: Streptococcus pneumoniae; experiment: Antimicrobial activity against penicillin-resistant Streptococcus pneumoniae clinical isolates assessed as percent susceptible isolates by broth microdilution method; assay type: functional
[9] = Antimicrobial activity against erythromycin-susceptible Streptococcus Group C clinical isolates by broth microdilution method; assay type: functional; details: Streptococcus sp. 'group C'
[10] = tested on: Enterococcus faecalis; experiment: Antimicrobial activity against Enterococcus faecalis clinical isolates by broth microdilution method; assay type: functional
[11] = tested on: Streptococcus pneumoniae; experiment: Antimicrobial activity against penicillin-susceptible Streptococcus pneumoniae clinical isolates assessed as percent susceptible isolates by broth microdilution method; assay type: functional
[12] = tested on: Enterococcus faecalis; experiment: Antimicrobial activity against Enterococcus faecalis clinical isolates assessed as percent susceptible isolates by broth microdilution method; assay type: functional
[13] = tested on: Streptococcus pyogenes; experiment: Antimicrobial activity against erythromycin-susceptible Streptococcus pyogenes clinical isolates by broth microdilution method; assay type: functional
[14] = tested on: Streptococcus pneumoniae; experiment: Antimicrobial activity against penicillin-resistant Streptococcus pneumoniae clinical isolates by broth microdilution method; assay type: functional
[15] = tested on: Enterococcus faecalis; experiment: Antimicrobial activity against vancomycin-susceptible Enterococcus faecalis clinical isolates by broth microdilution method; assay type: functional
[16] = tested on: Streptococcus agalactiae; experiment: Antimicrobial activity against Streptococcus agalactiae clinical isolates assessed as percent susceptible isolates by broth microdilution method; assay type: functional
[17] = Antimicrobial activity against erythromycin-susceptible Streptococcus Group G clinical isolates by broth microdilution method; assay type: functional; details: Streptococcus sp. 'group G'
[18] = Antimicrobial activity against erythromycin-susceptible Streptococcus Group G clinical isolates assessed as percent susceptible isolates by broth microdilution method; assay type: functional, Streptococcus sp. 'group G'
[19] = tested on: Streptococcus; experiment: Antimicrobial activity against Streptococcus Group F clinical isolates assessed as percent susceptible isolates by broth microdilution method; assay type: functional
[20] = tested on: Enterococcus faecalis; experiment: Antimicrobial activity against Enterococcus faecalis expressing VanA gene clinical isolates by broth microdilution method; assay type: functional
[21] = tested on: Streptococcus pneumoniae; experiment: Antimicrobial activity against Streptococcus pneumoniae clinical isolates assessed as percent susceptible isolates by broth microdilution method; assay type: functional
[22] = tested on: Staphylococcus haemolyticus; experiment: Antimicrobial activity against oxacillin-susceptible Staphylococcus haemolyticus clinical isolates by broth microdilution method; assay type: functional
[23] = Antimicrobial activity against erythromycin-nonsusceptible Streptococcus Group C clinical isolates by broth microdilution method; assay type: functional; details: Streptococcus sp. 'group C'
[24] = Antimicrobial activity against Streptococcus Group C clinical isolates by broth microdilution method; assay type: functional; details: Streptococcus sp. 'group C'
[25] = Antimicrobial activity against erythromycin-susceptible Streptococcus Group C clinical isolates assessed as percent susceptible isolates by broth microdilution method; assay type: functional, Streptococcus sp. 'group C'
[26] = tested on: Streptococcus pyogenes; experiment: Antimicrobial activity against Streptococcus pyogenes clinical isolates assessed as percent susceptible isolates by broth microdilution method; assay type: functional
[27] = Antimicrobial activity against Streptococcus Group G clinical isolates by broth microdilution method; assay type: functional; details: Streptococcus sp. 'group G'
[28] = tested on: Streptococcus agalactiae; experiment: Antimicrobial activity against erythromycin-nonsusceptible Streptococcus agalactiae clinical isolates by broth microdilution method; assay type: functional
[29] = tested on: Streptococcus pyogenes; experiment: Antimicrobial activity against erythromycin-nonsusceptible Streptococcus pyogenes clinical isolates assessed as percent susceptible isolates by broth microdilution method; assay type: functional
[30] = tested on: Streptococcus agalactiae; experiment: Antimicrobial activity against erythromycin-nonsusceptible Streptococcus agalactiae clinical isolates assessed as resistant isolates by broth microdilution method; assay type: functional
[31] = tested on: Streptococcus agalactiae; experiment: Antimicrobial activity against Streptococcus agalactiae clinical isolates assessed as resistant isolates by broth microdilution method; assay type: functional
[32] = tested on: Staphylococcus epidermidis; experiment: Antimicrobial activity against Staphylococcus epidermidis clinical isolates assessed as percent susceptible isolates by broth microdilution method; assay type: functional
[33] = tested on: Enterococcus faecalis; experiment: Antimicrobial activity against vancomycin-nonsusceptible Enterococcus faecalis clinical isolates by broth microdilution method; assay type: functional
[34] = tested on: Streptococcus pyogenes; experiment: Antimicrobial activity against erythromycin-nonsusceptible Streptococcus pyogenes clinical isolates by broth microdilution method; assay type: functional
[35] = tested on: Streptococcus pneumoniae; experiment: Antimicrobial activity against penicillin-intermediate Streptococcus pneumoniae clinical isolates by broth microdilution method; assay type: functional
[36] = Antimicrobial activity against erythromycin-nonsusceptible Streptococcus Group G clinical isolates by broth microdilution method; assay type: functional; details: Streptococcus sp. 'group G'
[37] = tested on: Enterococcus faecium; experiment: Antimicrobial activity against Enterococcus faecium expressing VanB gene clinical isolates assessed as percent susceptible isolates by broth microdilution method; assay type: functional
[38] = tested on: Streptococcus pneumoniae; experiment: Antimicrobial activity against penicillin-susceptible Streptococcus pneumoniae clinical isolates by broth microdilution method; assay type: functional
[39] = tested on: Enterococcus faecalis; experiment: Antimicrobial activity against Enterococcus faecalis expressing VanA gene clinical isolates assessed as resistant isolates by broth microdilution method; assay type: functional
[40] = tested on: Streptococcus agalactiae; experiment: Antimicrobial activity against erythromycin-susceptible Streptococcus agalactiae clinical isolates assessed as percent susceptible isolates by broth microdilution method; assay type: functional
[41] = tested on: Streptococcus; experiment: Antimicrobial activity against erythromycin-nonsusceptible Streptococcus Group F clinical isolates by broth microdilution method; assay type: functional
[42] = tested on: Streptococcus; experiment: Antimicrobial activity against erythromycin-susceptible Streptococcus Group F clinical isolates assessed as percent susceptible isolates by broth microdilution method; assay type: functional
[43] = tested on: Enterococcus faecalis; experiment: Antimicrobial activity against Enterococcus faecalis expressing VanB gene clinical isolates assessed as percent susceptible isolates by broth microdilution method; assay type: functional
[44] = tested on: Streptococcus agalactiae; experiment: Antimicrobial activity against erythromycin-nonsusceptible Streptococcus agalactiae clinical isolates assessed as percent susceptible isolates by broth microdilution method; assay type: functional
[45] = tested on: Staphylococcus epidermidis; experiment: Antimicrobial activity against oxacillin-susceptible Staphylococcus epidermidis clinical isolates assessed as resistant isolates by broth microdilution method; assay type: functional
[46] = tested on: Enterococcus faecium; experiment: Antimicrobial activity against vancomycin-susceptible Enterococcus faecium clinical isolates by broth microdilution method; assay type: functional
[47] = tested on: Streptococcus pyogenes; experiment: Antimicrobial activity against Streptococcus pyogenes clinical isolates by broth microdilution method; assay type: functional
[48] = tested on: Staphylococcus haemolyticus; experiment: Antimicrobial activity against oxacillin-resistant Staphylococcus haemolyticus clinical isolates assessed as resistant isolates by broth microdilution method; assay type: functional
[49] = tested on: Streptococcus agalactiae; experiment: Antimicrobial activity against erythromycin-susceptible Streptococcus agalactiae clinical isolates assessed as resistant isolates by broth microdilution method; assay type: functional
[50] = tested on: Staphylococcus haemolyticus; experiment: Antimicrobial activity against Staphylococcus haemolyticus clinical isolates assessed as resistant isolates by broth microdilution method; assay type: functional
[51] = Antimicrobial activity against Streptococcus Group G clinical isolates assessed as percent susceptible isolates by broth microdilution method; assay type: functional, Streptococcus sp. 'group G'
[52] = Antimicrobial activity against erythromycin-nonsusceptible Streptococcus Group G clinical isolates assessed as percent susceptible isolates by broth microdilution method; assay type: functional, Streptococcus sp. 'group G'
[53] = tested on: Streptococcus agalactiae; experiment: Antimicrobial activity against erythromycin-susceptible Streptococcus agalactiae clinical isolates by broth microdilution method; assay type: functional
[54] = tested on: Staphylococcus haemolyticus; experiment: Antimicrobial activity against Staphylococcus haemolyticus clinical isolates by broth microdilution method; assay type: functional

In the case of `CN[C@H](CC(C)C)C(=O)N[C@H]1C(=O)N[C@@H](CC(N)=O)C(=O)N[C@H]2C(=O)N[C@H]3C(=O)N[C@H](C(=O)N[C@H](C(=O)O)c4cc(O)cc(O)c4-c4cc3ccc4O)[C@H](O)c3ccc(c(Cl)c3)Oc3cc2cc(c3O[C@@H]2O[C@H](CO)[C@@H](O)[C@H](O)[C@H]2O[C@H]2C[C@](C)(N)[C@H](O)[C@H](C)O2)Oc2ccc(cc2Cl)[C@H]1O` [VANCOMYCIN], the Activity [1] was 100%, the MIC90 [2] was 0.5 µg/mL (≈ 0.345 µM) and the MIC90 [3] was 2 µg/mL (≈ 1.38 µM). For the same molecule, the MIC90 [4] was 0.5 µg/mL (≈ 0.345 µM), the Activity [5] was 100% and the MIC90 [6] was 0.5 µg/mL (≈ 0.345 µM). For the same molecule, the MIC90 [7] was 0.25 µg/mL (≈ 0.173 µM), the Activity [8] was 100% and the MIC90 [9] was 0.5 µg/mL (≈ 0.345 µM). It also gave an MIC90 [10] of 2 µg/mL (≈ 1.38 µM), an Activity [11] of 100% and an Activity [12] of 95%. For the same molecule, the MIC90 [13] was 0.25 µg/mL (≈ 0.173 µM), the MIC90 [14] was 0.5 µg/mL (≈ 0.345 µM) and the MIC90 [15] was 2 µg/mL (≈ 1.38 µM). It also gave an Activity [16] of 100%, an MIC90 [17] of 0.5 µg/mL (≈ 0.345 µM) and an Activity [18] of 100%. For the same molecule, the Activity [19] was 100%, the MIC90 [20] was over 256 µg/mL and the Activity [21] was 100%. It also gave an MIC90 [22] of 1 µg/mL (≈ 0.69 µM), an MIC90 [23] of 0.5 µg/mL (≈ 0.345 µM) and an MIC90 [24] of 0.5 µg/mL (≈ 0.345 µM). For the same molecule, the Activity [25] was 100%, the Activity [26] was 100% and the MIC90 [27] was 0.5 µg/mL (≈ 0.345 µM). It also gave an MIC90 [28] of 0.5 µg/mL (≈ 0.345 µM), an Activity [29] of 100% and an Activity [30] of 0%. The Activity [31] was 0%, the Activity [32] was 100% and the MIC90 [33] was over 256 µg/mL. The MIC90 [34] was 0.25 µg/mL (≈ 0.173 µM), the MIC90 [35] was 0.25 µg/mL (≈ 0.173 µM) and the MIC90 [36] was 0.5 µg/mL (≈ 0.345 µM). For the same molecule, the Activity [37] was 0%, the MIC90 [38] was 0.25 µg/mL (≈ 0.173 µM) and the Activity [39] was 100%. It also gave an Activity [40] of 100%, an MIC90 [41] of 0.5 µg/mL (≈ 0.345 µM) and an Activity [42] of 100%. For the same molecule, the Activity [43] was 0%, the Activity [44] was 100% and the “Percent of isolates resistant” value [45] was 0%. For the same molecule, the MIC90 [46] was 1 µg/mL (≈ 0.69 µM), the MIC90 [47] was 0.25 µg/mL (≈ 0.173 µM) and the Activity [48] was 0%. The Activity [49] was 0%, the Resistant isolates [50] was 0% and the Activity [51] was 100%. The Activity [52] was 100%, the MIC90 [53] was 0.5 µg/mL (≈ 0.345 µM) and the MIC90 [54] was 2 µg/mL (≈ 1.38 µM).
